Experimental data: patent US20020035061A1, “COMPOSITIONS AND METHODS FOR TREATING INFECTIONS USING CATIONIC PEPTIDES ALONE OR IN COMBINATION WITH ANTIBIOTICS” (priority 1996, published 2002)

Assays:
[1] = system: Candida; assay: Agarose dilution assay (MIC) against Candida; type: cell-based
[2] = system: various bacterial strains; assay: Broth dilution assay (MIC); type: cell-based
Description: Typically 100 μl of calcium and magnesium supplemented Mueller Hinton broth is dispensed into each well of a 96-well microtitre plate and 100 μl volumes of two-fold serial dilutions of the peptide are prepared across the plate. One row of wells receives no peptide and is used as a growth control. Each well is inoculated with approximately 5×10^5 CFU of bacteria and the plate is incubated at 35-37° C. for 16-20 hours.
For example, MIC values in μg/ml are established by broth dilution assay (Table 13) or by agarose dilution assay (Table 14) for a series of cationic peptides against various bacterial strains.

[3] = Liposome dye release; settings: egg PC liposomes
Description: In this example, a dye pair consisting of the fluorescent molecule 8-aminonapthalene-1,3,6-trisulfonic acid (ANTS) and its quencher molecule p-xylene-bis-pyridinium bromide (DPX) are used. The mixture of free dye molecules, dye free liposomes, and liposomes containing encapsulated ANTS-DPX are separated by size exclusion chromatography. In the assay, the test peptide is incubated with the ANTS-DPX containing liposomes and the fluorescence due to ANTS release to the outside of the liposome is measured over time.
Using this assay, peptide activity, measured by dye release, is shown to be extremely sensitive to the composition of the liposomes at many liposome to peptide ratios (L/P) (FIG. 7). […] This […] selectivity may mimic that observed […] for bacterial cells in the presence of mammalian cells.
ANTS/DPX can be replaced with fluorescein isothiocyanate-labeled dextran (FD-4), molecular weight 4,400, in the egg PC liposomes.

[4] = system: E. coli strain ML-35 inner membrane; type: cell-based; settings: cells pre-incubated with valinomycin
[5] = system: S. epidermidis (ATCC # 12228); assay: In vivo efficacy, S. epidermidis infection; settings: iv
[6] = system: MCF-7ADR, breast carcinoma, multidrug resistant; assay: Cell death by Cytotox (Promega) lactate dehydrogenase release; type: cell-based; settings: LDH release
Procedure, shortened: (§1)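 Read-out: LDH released from damaged cells. Compounds are APO-peptides alongside the corresponding parent peptides; non-tumour PBL and HUVEC were run next to cancer lines.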

[7] = system: P388ADR, lymphocytic leukemia, multidrug resistant; assay: as above; type: cell-based; settings: LDH release
Procedure, shortened: as §1

[8] = system: P. vulgaris; assay: Agarose dilution assay (MIC); type: cell-based

Sequence ILKKWPWWPWRRK [MBI 11CN] has an MIC ([1]; C. albicans CA001) of 128 µg/mL, an MIC ([1]; C. albicans CA002) of 64 µg/mL and an MIC ([1]; C. albicans CA003) of 128 µg/mL. For the same sequence, the MIC ([1]; C. albicans CA004) was 64 µg/mL, the MIC ([1]; C. albicans CA005) was 128 µg/mL and the MIC ([1]; C. albicans CA006) was 128 µg/mL. It also gave an MIC ([1]; C. albicans CA007) of 128 µg/mL, an MIC ([1]; C. albicans CA008) of 64 µg/mL and an MIC ([1]; C. albicans CA009) of 64 µg/mL. It also gave an MIC ([1]; C. albicans CA010) of 128 µg/mL, an MIC ([1]; C. albicans CA011) of 64 µg/mL and an MIC ([1]; C. albicans CA012) of 128 µg/mL. For the same sequence, the MIC ([1]; C. albicans CA013) was 128 µg/mL, the MIC ([1]; C. albicans CA014) was 64 µg/mL and the MIC ([1]; C. albicans CA015) was 128 µg/mL. The MIC ([1]; C. albicans CA016) was 128 µg/mL, the MIC ([1]; C. albicans CA017) was 128 µg/mL and the MIC ([1]; C. albicans CA018) was 128 µg/mL. It also gave an MIC ([1]; C. albicans CA019) of 128 µg/mL, an MIC ([1]; C. albicans CA020) of 128 µg/mL and an MIC ([1]; C. albicans CA021) of 128 µg/mL. It also gave an MIC ([1]; C. albicans CA022) of 32 µg/mL, an MIC ([1]; C. albicans CA023) of 128 µg/mL and an MIC ([1]; C. albicans CA024) of 16 µg/mL. For the same sequence, the MIC ([1]; C. glabrata CGL001) was over 128 µg/mL, the MIC ([1]; C. glabrata CGL002) was over 128 µg/mL and the MIC ([1]; C. glabrata CGL003) was over 128 µg/mL. The MIC ([1]; C. glabrata CGL004) was over 128 µg/mL, the MIC ([1]; C. glabrata CGL005) was over 128 µg/mL and the MIC ([1]; C. glabrata CGL009) was over 128 µg/mL. It also gave an MIC ([1]; C. glabrata CGL010) of over 128 µg/mL, an MIC ([1]; C. krusei CKR001) of 0.5 µg/mL and an MIC ([1]; C. tropicalis CTR001) of 4 µg/mL. It also gave an MIC ([1]; C. tropicalis CTR002) of 4 µg/mL, an MIC ([1]; C. tropicalis CTR003) of 8 µg/mL and an MIC ([1]; C. tropicalis CTR004) of 4 µg/mL. It also gave an MIC ([1]; C. tropicalis CTR005) of 4 µg/mL, an MIC ([1]; C. tropicalis CTR006) of 16 µg/mL and an MIC ([1]; C. tropicalis CTR007) of 16 µg/mL. It also gave an MIC ([1]; C. tropicalis CTR008) of 8 µg/mL, an MIC ([1]; C. tropicalis CTR009) of 8 µg/mL and an MIC ([2]; A. calcoaceticus 8191) of 256 µg/mL. It also gave an MIC ([2]; E. cloacae 13047) of over 128 µg/mL, an MIC ([2]; E. coli 25922) of 128 µg/mL and an MIC ([2]; E. coli DH1) of 64 µg/mL. It also gave an MIC ([2]; E. coli ECO003) of 64 µg/mL, an MIC ([2]; E. coli KL4) of 64 µg/mL and an MIC ([2]; E. faecalis 29212) of 64 µg/mL. It also gave an MIC ([2]; K. pneumoniae 13883) of over 128 µg/mL, an MIC ([2]; K. pneumoniae B44) of 64 µg/mL and an MIC ([2]; P. aeruginosa 27853) of over 128 µg/mL. It also gave an MIC ([2]; P. aeruginosa 8509041) of 256 µg/mL, an MIC ([2]; P. aeruginosa 9308077) of 128 µg/mL and an MIC ([2]; P. aeruginosa 9503024) of over 256 µg/mL. For the same sequence, the MIC ([2]; P. aeruginosa H650) was 256 µg/mL, the MIC ([2]; P. aeruginosa H652) was 256 µg/mL and the MIC ([2]; S. aureus 25923) was 32 µg/mL. For the same sequence, the MIC ([2]; S. aureus 27217) was 64 µg/mL, the MIC ([2]; S. aureus 29213) was 32 µg/mL and the MIC ([2]; S. aureus 33593) was 64 µg/mL. For the same sequence, the MIC ([2]; S. aureus 8402093) was 32 µg/mL, the MIC ([2]; S. aureus 8809014) was 32 µg/mL and the MIC ([2]; S. aureus 8809025) was 64 µg/mL. It also gave an MIC ([2]; S. epidermidis 14990) of 8 µg/mL, an MIC ([2]; S. maltophilia 13637) of 128 µg/mL and an MIC ([2]; S. maltophilia H361) of 64 µg/mL. For the same sequence, the MIC ([2]; S. marcescens 13880) was over 128 µg/mL, the MIC ([2]; S. marcescens B21) was over 256 µg/mL and the “FD-4 (MW 4,400) release” value [3] was “No increase in FD-4 fluorescence”. The “ONPG hydrolysis diminished compared to no pre-incubation” value [4] was “approximately 50%”, the efficacy ([5]; 30 minutes post-infection) was “less activity” and the efficacy ([5]; 60 minutes post-infection) was “no significant effect”. The “survival of the mice” value ([5]; formulation D) was “prolongs the survival of the mice”, the efficacy ([5]; treatment 15 minutes post-infection) was “Efficacy is observed at all three dose levels” and the “LC50 ± S.E., MCF-7 ADR” value [6] was 17 ± 1 µg/mL. For the same sequence, the “LC50 ± S.E., P388 ADR” value [7] was 25 µg/mL.

For ILKKFPFFPFRRK [MBI 11A1CN], the MIC ([8]; P. vulgaris SBPV1) was over 128 µg/mL, the “Peptide MIC values” ([8]; agarose dilution, P. vulgaris ATCC 13315) was over 128 µg/mL and the MIC ([2]; A. calcoaceticus 8191) was over 256 µg/mL. The MIC ([2]; E. cloacae 13047) was over 256 µg/mL, the MIC ([2]; E. coli 25922) was 512 µg/mL and the MIC ([2]; E. coli DH1) was 128 µg/mL. For the same sequence, the MIC ([2]; E. coli ECO003) was over 256 µg/mL, the MIC ([2]; E. coli KL4) was 256 µg/mL and the MIC ([2]; E. faecalis 29212) was over 256 µg/mL. The MIC ([2]; K. pneumoniae 13883) was over 256 µg/mL, the MIC ([2]; K. pneumoniae B44) was over 256 µg/mL and the MIC ([2]; P. aeruginosa 27853) was over 256 µg/mL. The MIC ([2]; P. aeruginosa 8509041) was over 256 µg/mL, the MIC ([2]; P. aeruginosa 9308077) was over 256 µg/mL and the MIC ([2]; P. aeruginosa 9503024) was over 256 µg/mL. The MIC ([2]; P. aeruginosa H650) was over 256 µg/mL, the MIC ([2]; P. aeruginosa H652) was over 256 µg/mL and the MIC ([2]; S. aureus 25923) was 512 µg/mL. The MIC ([2]; S. aureus 27217) was over 256 µg/mL, the MIC ([2]; S. aureus 29213) was 512 µg/mL and the MIC ([2]; S. aureus 33593) was over 256 µg/mL. For the same sequence, the MIC ([2]; S. aureus 8402093) was over 256 µg/mL, the MIC ([2]; S. aureus 8809014) was over 256 µg/mL and the MIC ([2]; S. aureus 8809025) was over 256 µg/mL. For the same sequence, the MIC ([2]; S. epidermidis 14990) was 512 µg/mL, the MIC ([2]; S. maltophilia 13637) was 256 µg/mL and the MIC ([2]; S. maltophilia H361) was 256 µg/mL. The MIC ([2]; S. marcescens 13880) was over 256 µg/mL and the MIC ([2]; S. marcescens B21) was over 256 µg/mL.
